Test results taken from PubChem BioAssay AID330 (DTP/NCI, 2004).
Several values for one entry are separate records, joined by “and”; a condition that tells them apart may be missing. Equal values may be shown once. Toxic doses and inconclusive results are not listed. The calls were made as follows: active = survival T/C of 150% or more; inactive = T/C below 125% in these data.

System: P388 leukemia ip, CD2F1 mice, survival T/C
Experiment: NCI In Vivo Anticancer Drug Screen. Data for tumor model P388 Leukemia (intraperitoneal) in CD2F1 (CDF1) mice
Details: endpoint: median survival time, higher = longer survival
Summary of the method: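 Mice carrying the transplanted tumor received test compound or vehicle. Survival was recorded in each group, and the value is the treated-group measurement divided by that of the vehicle-treated control group.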

[1] = dose: 50.0 mg/kg/injection, schedule: Q01DX005 (ip), vehicle: Klucel (hydroxypropylcellulose) (HPC)
[2] = dose: 50.0 mg/kg/injection, schedule: Q01DX009 (ip), vehicle: Klucel (hydroxypropylcellulose) (HPC)
[3] = dose: 100.0 mg/kg/injection, schedule: Q01DX009 (ip), vehicle: Klucel (hydroxypropylcellulose) (HPC)
[4] = dose: 200.0 mg/kg/injection, schedule: Q01DX009 (ip), vehicle: Klucel (hydroxypropylcellulose) (HPC)
[5] = dose: 50.0 mg/kg/injection, schedule: Q01DX005 (ip), vehicle: saline with Tween-80
[6] = dose: 100.0 mg/kg/injection, schedule: Q01DX005 (ip), vehicle: saline with Tween-80
[7] = dose: 200.0 mg/kg/injection, schedule: Q01DX005 (ip), vehicle: saline with Tween-80
[8] = dose: 50.0 mg/kg/injection, schedule: Q01DX009 (ip), vehicle: saline with Tween-80
[9] = dose: 100.0 mg/kg/injection, schedule: Q01DX009 (ip), vehicle: saline with Tween-80
[10] = dose: 200.0 mg/kg/injection, schedule: Q01DX009 (ip), vehicle: saline with Tween-80
[11] = dose: 60.0 mg/kg/injection, schedule: Q01DX005 (ip), vehicle: saline with Tween-80
[12] = dose: 120.0 mg/kg/injection, schedule: Q01DX005 (ip), vehicle: saline with Tween-80
[13] = dose: 240.0 mg/kg/injection, schedule: Q01DX005 (ip), vehicle: saline with Tween-80
[14] = dose: 12.5 mg/kg/injection, schedule: Q01DX009 (ip), vehicle: saline
[15] = dose: 25.0 mg/kg/injection, schedule: Q01DX009 (ip), vehicle: saline
[16] = dose: 50.0 mg/kg/injection, schedule: Q01DX009 (ip), vehicle: saline
[17] = dose: 100.0 mg/kg/injection, schedule: Q04DX003 (ip), vehicle: saline with Tween-80
[18] = dose: 25.0 mg/kg/injection, schedule: Q01DX005 (ip), vehicle: saline with Tween-80
[19] = dose: 12.5 mg/kg/injection, schedule: Q01DX005 (ip), vehicle: saline with Tween-80

Measured: T/C

O=C1c2ccccc2C(=O)c2c1cn1c2Cc2ccccc2C1
inactive: dose: 30.0 mg/kg/injection, schedule: Q01DX005 (ip), vehicle: Klucel (hydroxypropylcellulose) (HPC) 103 % of control and 97 % of control | dose: 60.0 mg/kg/injection, schedule: Q01DX005 (ip), vehicle: Klucel (hydroxypropylcellulose) (HPC) 113 % of control and 94 % of control | dose: 120.0 mg/kg/injection, schedule: Q01DX005 (ip), vehicle: Klucel (hydroxypropylcellulose) (HPC) 103 % of control and 113 % of control and 96 % of control | dose: 0.25 ml/mouse/injection, schedule: Q01DX005 (ip), vehicle: other 107 % of control | dose: 0.5 ml/mouse/injection, schedule: Q01DX005 (ip), vehicle: other 106 % of control

CCCOC(=O)NC(C)C(=O)NC(CCC(=O)NC(CCCC(N)C(=O)O)C(=O)NC(C)C(=O)O)C(=O)O (stereo not drawn)
inactive: dose: 1.56 mg/kg/injection, schedule: Q01DX005 (ip), vehicle: Klucel (hydroxypropylcellulose) (HPC) 100 % of control | dose: 3.12 mg/kg/injection, schedule: Q01DX005 (ip), vehicle: Klucel (hydroxypropylcellulose) (HPC) 103 % of control | dose: 6.25 mg/kg/injection, schedule: Q01DX005 (ip), vehicle: Klucel (hydroxypropylcellulose) (HPC) 100 % of control | dose: 12.5 mg/kg/injection, schedule: Q01DX005 (ip), vehicle: Klucel (hydroxypropylcellulose) (HPC) 95 % of control and 96 % of control | dose: 25.0 mg/kg/injection, schedule: Q01DX005 (ip), vehicle: Klucel (hydroxypropylcellulose) (HPC) 86 % of control | [1] 100 % of control

C[N+]1=C(/C=C/Nc2cc3c4ccccc4ccc3c3ccccc23)C(C)(C)c2ccccc21
inactive: [2] 117 % of control | [3] 119 % of control | [4] 117 % of control

Cc1c(N=Nc2cccc(Cl)c2Cl)c(-c2ccccc2)nn1C(=S)S
inactive: [5] 106 % of control | [6] 94 % of control | [7] 103 % of control

COc1cc(OC)c(C(C)=O)c(OC)c1OC
inactive: [8] 106 % of control | [9] 113 % of control | [10] 106 % of control

CC1(C)CC(=O)C(CC(=O)c2ccccc2)=C(NN=C(N)N)C1
inactive: [2] 101 % of control | [3] 100 % of control | [4] 91 % of control

O=P(OCC(F)(F)F)(c1ccccc1)c1ccccc1
inactive: [5] 108 % of control | [6] 104 % of control | [7] 112 % of control

Cc1nc2c(Cl)cc(Cl)cc2c(=O)n1CC(=O)NNC(N)=S
inactive: [8] 97 % of control | [9] 94 % of control | [10] 93 % of control

CCOc1ccc(C(=O)Nc2c(C)cc(C)cc2C)cc1
inactive: [9] 90 % of control | [10] 95 % of control | dose: 400.0 mg/kg/injection, schedule: Q01DX009 (ip), vehicle: saline with Tween-80 105 % of control

COc1cc(C2CC(C)(O)Oc3cc4c(cc32)OCO4)cc(OC)c1O (stereo not drawn)
inactive: [11] 95 % of control | [12] 98 % of control | [13] 95 % of control

COc1ccc(C23OCN(c4ccccc4)C2(c2ccc(OC)cc2)c2ccccc2N3C)cc1 (stereo not drawn)
inactive: [11] 103 % of control | [12] 100 % of control | [13] 94 % of control

CC1CC(C)(C)OC(C2CC=CCC2C)O1 (stereo not drawn)
inactive: [5] 97 % of control | [6] 100 % of control | [7] 109 % of control

CC(C)N=C(Cc1ccccc1)NC(C)(C)C
inactive: [14] 111 % of control | [15] 101 % of control | [16] 98 % of control

COc1ccc(C2(c3ccccc3)c3ccccc3C(=O)c3ccccc32)cc1
inactive: [1] 101 % of control | dose: 100.0 mg/kg/injection, schedule: Q01DX005 (ip), vehicle: Klucel (hydroxypropylcellulose) (HPC) 103 % of control | dose: 200.0 mg/kg/injection, schedule: Q01DX005 (ip), vehicle: Klucel (hydroxypropylcellulose) (HPC) 99 % of control

CCc1cccc(C)c1N1C(=O)C(=O)C(c2nc3ccccc3o2)/C(=N\NS(=O)(=O)c2ccc(C)cc2)C1=O (stereo not drawn)
inactive: [11] 98 % of control | [12] 100 % of control | [13] 97 % of control

OCCCN1CNC(=S)NC1
inactive: [14] 106 % of control and 111 % of control | [15] 100 % of control and 105 % of control | [16] 100 % of control and 97 % of control | dose: 100.0 mg/kg/injection, schedule: Q01DX009 (ip), vehicle: saline 99 % of control and 102 % of control

CNc1ccc(N=Nc2ccc3ncccc3c2)cc1
inactive: dose: 3.13 mg/kg/injection, schedule: Q01DX009 (ip), vehicle: saline with Tween-80 104 % of control | dose: 6.25 mg/kg/injection, schedule: Q01DX009 (ip), vehicle: saline with Tween-80 95 % of control | dose: 12.5 mg/kg/injection, schedule: Q01DX009 (ip), vehicle: saline with Tween-80 90 % of control | dose: 25.0 mg/kg/injection, schedule: Q04DX003 (ip), vehicle: saline with Tween-80 100 % of control | dose: 50.0 mg/kg/injection, schedule: Q04DX003 (ip), vehicle: saline with Tween-80 90 % of control | [17] 86 % of control

NC1CCC[C@@H](O)[C@H]1O (stereo partly drawn)
inactive: dose: 60.0 mg/kg/injection, schedule: Q01DX005 (ip), vehicle: saline 104 % of control | dose: 120.0 mg/kg/injection, schedule: Q01DX005 (ip), vehicle: saline 103 % of control | dose: 240.0 mg/kg/injection, schedule: Q01DX005 (ip), vehicle: saline 98 % of control

CC(C)NC(=O)OCc1c(COC(=O)NC(C)C)c2n(c1-c1ccc(Cl)c(Cl)c1)CCS2(=O)=O
inactive: [18] 106 % of control | [5] 97 % of control | [6] 88 % of control | [7] 86 % of control

Cn1c2ccccc2c2nnc(-n3nc(-c4ccc(Br)cc4)cc3N)nc21
inactive: [19] 98 % of control | [18] 87 % of control | [6] 93 % of control | [7] 95 % of control

CCOc1ccc(N=Nc2c(C)nn(C(=S)SC)c2OCC)cc1
inactive: dose: 60.0 mg/kg/injection, schedule: Q01DX005 (ip), vehicle: Klucel + Tween-80 95 % of control | dose: 120.0 mg/kg/injection, schedule: Q01DX005 (ip), vehicle: Klucel + Tween-80 95 % of control | dose: 240.0 mg/kg/injection, schedule: Q01DX005 (ip), vehicle: Klucel + Tween-80 94 % of control

c1ccc2c(c1)ccc1c(-c3ccncc3)n[nH]c12
inactive: [8] 99 % of control | [9] 88 % of control | [10] 87 % of control

O=C1C[C@]2(CC3CO3)C[C@@H](C=CC23OCCO3)O1 (stereo partly drawn)
inactive: dose: 1.5 mg/kg/injection, schedule: Q01DX005 (ip), vehicle: acid diluted with saline 99 % of control | dose: 3.0 mg/kg/injection, schedule: Q01DX005 (ip), vehicle: acid diluted with saline 102 % of control | dose: 6.0 mg/kg/injection, schedule: Q01DX005 (ip), vehicle: acid diluted with saline 102 % of control | dose: 12.0 mg/kg/injection, schedule: Q01DX005 (ip), vehicle: acid diluted with saline 107 % of control

OC(CNC1CC2CCC1C2)COc1cccc2ccccc12 (stereo not drawn)
inactive: dose: 25.0 mg/kg/injection, schedule: Q01DX009 (ip), vehicle: Klucel (hydroxypropylcellulose) (HPC) 107 % of control | [2] 107 % of control | [3] 110 % of control

CN(C)c1ccc(N=NN=c2n(C)c3ccccc3n2C)c(Cl)c1
inactive: dose: 6.25 mg/kg/injection, schedule: Q01DX005 (ip), vehicle: saline with Tween-80 103 % of control | [19] 106 % of control and 109 % of control | [18] 113 % of control and 115 % of control | [5] 117 % of control

CCOC(=O)C1CC(=O)c2ccc(OC)c(OC)c2C1 (stereo not drawn)
inactive: dose: 25.0 mg/kg/injection, schedule: Q01DX009 (ip), vehicle: other 103 % of control | dose: 50.0 mg/kg/injection, schedule: Q01DX009 (ip), vehicle: other 100 % of control | dose: 100.0 mg/kg/injection, schedule: Q01DX009 (ip), vehicle: other 94 % of control | dose: 200.0 mg/kg/injection, schedule: Q01DX009 (ip), vehicle: other 94 % of control | dose: 400.0 mg/kg/injection, schedule: Q01DX009 (ip), vehicle: other 98 % of control

O=C1OC(=O)C2C1C1(c3ccccc3)OC2(c2ccccc2)c2ccccc21 (stereo not drawn)
inactive: [17] 110 % of control | dose: 200.0 mg/kg/injection, schedule: Q04DX003 (ip), vehicle: saline with Tween-80 109 % of control | dose: 400.0 mg/kg/injection, schedule: Q04DX003 (ip), vehicle: saline with Tween-80 118 % of control

CCOc1cccc2nncn12
inactive: dose: 100.0 mg/kg/injection, schedule: Q01DX001 (ip), vehicle: saline 102 % of control | dose: 200.0 mg/kg/injection, schedule: Q01DX001 (ip), vehicle: saline 103 % of control
